ChEMBL document CHEMBL4811260, “Isolation, synthesis and absolute configuration of 4,5-dihydroxypiperines improving behavioral disorder in AlCl3-induced dementia” (2021)
The source made the active and inactive calls. No cut-off for these calls is given here.

Experiments:
Danio rerio [1] = species: Danio rerio; test: Antialzheimer activity against AlCl3-induced dementia zebrafish model assessed as increase in dyskinesia recovery rate at 10 uM measured for 60 mins under alternating light and dark environment in presence of 150 uM of AlCl3 relative to control; type: functional
Danio rerio [2] = species: Danio rerio; test: Antialzheimer activity against AlCl3-induced dementia zebrafish model assessed as increase in response efficiency at 10 uM measured for 60 mins under alternating light and dark environment in presence of 150 uM of AlCl3 relative to control; type: functional
Danio rerio [3] = species: Danio rerio; test: Antialzheimer activity against AlCl3-induced dementia zebrafish model assessed as increase in zebrafish movement speed at 10 uM measured for 60 mins under alternating light and dark environment in presence of 150 uM of AlCl3; type: functional, organism-based
Danio rerio [4] = species: Danio rerio; test: Antialzheimer activity against AlCl3-induced dementia zebrafish model assessed as increase in zebrafish movement speed change at 10 uM measured for 60 mins under alternating light and dark environment in presence of 150 uM of AlCl3; type: functional, organism-based

| SMILES | Activity (Danio rerio [1]) | Activity (Danio rerio [2]) | Activity (Danio rerio [1]; 1 h) [%] | Activity (Danio rerio [2]; 1 h) [%] | Activity (Danio rerio [3]) | Activity (Danio rerio [4]) |
| --- | --- | --- | --- | --- | --- | --- |
| O=C(/C=C/[C@H](O)[C@H](O)c1ccc2c(c1)OCO2)N1CCCCC1 | inactive | inactive | – | – | – | – |
| O=C(/C=C/[C@H](O)[C@@H](O)c1ccc2c(c1)OCO2)N1CCCCC1 | inactive | inactive | – | – | – | – |
| O=C(/C=C/[C@@H](O)[C@H](O)c1ccc2c(c1)OCO2)N1CCCCC1 | inactive | inactive | – | – | – | – |
| O=C(/C=C/[C@@H](O)[C@@H](O)c1ccc2c(c1)OCO2)N1CCCCC1 | – | – | 73.8 | 85.4 | Active | Active |
